This experiment has as its target T1, COX-1 (Sus scrofa, UniProt A0A287ANF9).
T1 construct: A platelet suspension obtained from pig's blood is preincubated with the test substance; endogenous in cells; host or cells: platelets from pig's blood
The experiment is described as follows: In-vitro test for COX-1 inhibition: fluorimetric quantification of malonaldehyde (MDA) in A23187-activated pig platelet suspension. It counts as cell-based. The note with it: for IC50: read-out: MDA pIC50 (converted). The procedure: In-vitro Test Procedure for the Determination of COX-1 Inhibition
The inhibition of the cyclooxygenase pathway is carried out by fluorimetric quantification of malonaldehyde (MA). This condenses in the acidic medium with twice the molar amount of thiobarbituric acid to give a red pigment dye, which has a fluorescence at λExcitation: 533 nm, λEmission: 550 nm.
A platelet suspension obtained from pig's blood is preincubated with the test substance for 10 min at 37° C. The concentration of the suspension should be 8×10^8 cells/ml. The arachidonic acid cascade is then activated by addition of the antibiotic calcium ionophore A23187 ([…]). After a further 10 min at 37° C., the reaction is stopped using a trichloroacetic acid solution. The samples are centrifuged and the supernatant is incubated with thiobarbituric acid for 30 min at 70° C. After cooling (30 min at room temperature), the samples are measured fluorimetrically at 533/550 nm and the IC50 values of the test compounds are determined therefrom by means of a calibration curve.

[1] abbreviates: Table 7, arylamides, pig platelets, read-out: MDA IC50.
Setting [2] is: Table 15, N,N-acetamides, pig platelets.
[3] abbreviates: Table 7, arylamides, pig platelets.
Where [4] appears, read: Table 1, carbamic acid thioesters, pig platelets, read-out: MDA IC50.
Setting [5] is: Table 8, arylsulfonamides, pig platelets, read-out: MDA IC50.
Setting [6] is: Table 5, heteroarylmethyl sulfides, pig platelets.
Setting [7] is: tables 1 to 17, read-out: IC50 values (inhibition of cyclooxygenase-1).

The values that follow come from US7223781B2 (Beiersdorf AG, priority 2001, dated 2007).

Each structure is given as a SMILES string. pIC50: −log10 of the molar value. Read-outs that look alike come from different tables or passages of the source.

T1 sequence (A0A287ANF9 25-600): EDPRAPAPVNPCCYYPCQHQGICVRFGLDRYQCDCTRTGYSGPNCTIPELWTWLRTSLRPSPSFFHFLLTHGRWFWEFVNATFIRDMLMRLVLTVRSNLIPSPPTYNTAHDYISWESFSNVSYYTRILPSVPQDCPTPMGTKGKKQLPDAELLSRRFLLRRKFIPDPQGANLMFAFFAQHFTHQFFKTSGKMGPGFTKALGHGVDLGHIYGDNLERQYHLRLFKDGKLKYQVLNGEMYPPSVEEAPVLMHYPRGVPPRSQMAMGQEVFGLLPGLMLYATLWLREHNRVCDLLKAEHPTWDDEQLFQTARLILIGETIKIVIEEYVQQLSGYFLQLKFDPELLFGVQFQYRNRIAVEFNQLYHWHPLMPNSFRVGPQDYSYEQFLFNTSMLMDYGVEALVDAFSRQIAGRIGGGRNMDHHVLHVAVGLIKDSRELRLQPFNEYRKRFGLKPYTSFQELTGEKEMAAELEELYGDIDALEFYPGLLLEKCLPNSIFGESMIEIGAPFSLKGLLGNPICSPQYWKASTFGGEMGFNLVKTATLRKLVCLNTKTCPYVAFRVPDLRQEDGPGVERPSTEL

Consider `COc1ccc(-c2nc(SCCNC(=O)c3ccccc3)n(C)c2-c2ccc(OC)cc2)cc1` [Compound T30, N^1-{2-[4,5-Bis(4-methoxyphenyl)-1-methyl-1H-imidazol-2-ylsufanyl]-ethyl}benzamide], for which the IC50 (Table 17, methyl derivatives, pig platelets) is 0.0417 µM. A word on the pIC50: it is the IC50 on a negative log10 scale, so that one unit is a factor of ten. For `COc1ccc(-c2nc(S(=O)(=O)Cc3ccccn3)[nH]c2-c2ccc(OC)cc2)cc1` [Compound T74, 2-[4,5-Bis(4-methoxyphenyl)-1H-imidazol-2-ylsulfonylmethyl]pyridine], the pIC50 (Table 14, sulfones and their sulfide analogs, pig platelets, read-out: MDA IC50) was 7.09. Consider `CCN(CC)C(=O)NCCSc1nc(-c2ccc(OC)cc2)c(-c2ccc(OC)cc2)[nH]1` [Compound T58, N^1-{2-[4,5-Bis(4-methoxyphenyl)-1H-imidazol-2-ylsulfanyl]ethyl}-N′,N′-diethylurea], for which the pIC50 (Table 13, urea derivatives, pig platelets, read-out: MDA IC50) was 7.30. In the case of `COc1ccc(-c2nc(SCCNC(=O)c3ccccc3Cl)[nH]c2-c2ccc(OC)cc2)cc1` [Compound T34, N^1-{2-[4,5-Bis(4-methoxyphenyl)-1H-imidazol-2-ylsufanyl]ethyl}-2-chlorobenzamide], the negative-log IC50 (pIC50) under setting [1] is 7.21. `COc1ccc(-c2nc(SCCNC(=O)c3ccc([N+](=O)[O-])cc3)[nH]c2-c2ccc(OC)cc2)cc1` [Compound T40, N^1-{2-[4,5-Bis(4-methoxyphenyl)-1H-imidazol-2-ylsufanyl]ethyl}-4-nitro-benzamide]: the pIC50 under setting [1] is 7.09. Regarding `CN(C)C(=O)CSc1nc(-c2ccc(Cl)cc2)c(-c2ccc(Cl)cc2)[nH]1` [Compound T87, N^1N^1-Dimethyl-2-[4,5-bis(4-chlorophenyl)-1H-imidazol-2-ylsulfanyl]-acetamide], the IC50 under setting [2] was 1.51 µM. Turning to `COc1ccc(-c2nc(SCCNC(=O)c3ccc(F)cc3)[nH]c2-c2ccc(OC)cc2)cc1` [Compound T38, N^1-{2-[4,5-Bis(4-methoxyphenyl)-1H-imidazol-2-ylsufanyl]ethyl}-4-fluorobenzamide], the IC50 under setting [3] is 0.251 µM. Consider `COc1ccc(-c2nc(SCCNC(=O)c3ccc(C(C)(C)C)cc3)[nH]c2-c2ccc(OC)cc2)cc1` [Compound T48, N^1-{2-[4,5-Bis(4-methoxyphenyl)-1H-imidazol-2-ylsufanyl]ethyl}-4-(tert-butyl)benzamide], for which the negative logarithm of the IC50 (pIC50) under setting [1] was 7.09. Take `COc1ccc(-c2nc(SCCNS(=O)(=O)c3cccc4ccccc34)[nH]c2-c2ccc(OC)cc2)cc1` [Compound T67, N^1-{2-[4,5-Bis(4-methoxyphenyl)-1H-imidazol-2-ylsulfanyl]ethyl}-naphthalene-1-sulfonamide]: the IC50 (Table 12, naphthylsulfonamides, pig platelets) was 0.38 µM. Consider `CN(C)C(=O)Sc1nc(-c2ccc(Cl)cc2)c(-c2ccccc2)[nH]1` [Compound T103, [4-(4-Chlorophenyl)-5-phenyl-1H-imidazol-2-yl]-N,N-dimethylcarbamic acid thioester], for which, under setting [4], the pIC50 is 5.14. Consider `COc1ccc(-c2nc(SCc3ccc4ccccc4n3)[nH]c2-c2ccc(OC)cc2)cc1` [Compound T72, 2-[4,5-Bis(4-methoxyphenyl)-1H-imidazol-2-ylsulfanylmethyl]quinoline], for which the pIC50 (Table 5, heteroarylmethyl sulfides, pig platelets, read-out: MDA IC50) is 7.05. For `COc1ccc(-c2nc(SCCNS(=O)(=O)c3ccccc3)[nH]c2-c2ccc(OC)cc2)cc1` [Compound T17, N^1-{2-[4,5-Bis(4-methoxyphenyl)-1H-imidazol-2-ylsufanyl]ethyl}benzene-sulfonamide], the pIC50 under setting [5] is 7.30. As to `COc1ccc(-c2nc(SCc3ccncc3)[nH]c2-c2ccc(OC)cc2)cc1` [Compound T71, 4-[4,5-Bis(4-methoxyphenyl)-1H-imidazol-2-ylsulfanylmethyl]pyridine], under setting [6], the IC50 is 0.00302 µM. In addition, the pIC50 under setting [7] was approximately 9.00. As for `COc1ccc(-c2nc(SCCNC(=O)c3cccc(C(F)(F)F)c3)[nH]c2-c2ccc(OC)cc2)cc1` [Compound T43, N^1-{2-[4,5-Bis(4-methoxyphenyl)-1H-imidazol-2-ylsufanyl]ethyl}-3-(tri-fluoromethyl)benzamide], the IC50 under setting [3] was 0.1 µM. Consider `O=C(NCCSc1nc(-c2ccc(F)cc2)c(-c2ccc(F)cc2)[nH]1)c1ccccc1` [Compound T98, N^1-{2-[4,5-Bis(4-fluorophenyl)-1H-imidazol-2-ylsufanyl]ethyl}benzamide], for which the IC50 under setting [3] was 1 µM. `CC(Sc1nc(-c2ccc(Cl)cc2)c(-c2ccc(Cl)cc2)n1C)C(=O)N(C)C` (stereo not drawn) [Compound T88, 2-[4,5-Bis(4-chlorophenyl)-1-methyl-1H-imidazol-2-ylsufanyl]-1-(di-methylamino)propan-1-one]: the “MDA pIC50” value under setting [2] worked out at 5.28 M. Under “Table 15, N,N-acetamides, pig platelets, read-out: MDA IC50”, the pIC50 is 5.28. With `COc1ccc(-c2nc(SC(=O)N(C)C)[nH]c2-c2ccc(OC)cc2)cc1` [Compound T1, [4,5-Bis(4-methoxyphenyl)-1H-imidazol-2-yl]-N,N-dimethylcarbamic acid thioester], the negative-log IC50 (pIC50) under setting [4] was 7.15. As for `COc1ccc(-c2nc(SCCNC(=O)c3ccccc3)[nH]c2-c2ccc(OC)cc2)cc1` [Compound T28, N^1-{2-[4,5-Bis(4-methoxyphenyl)-1H-imidazol-2-ylsufanyl]ethyl}benzamide], under setting [1], the pIC50 is 6.27. With `COc1ccc(-c2nc(SCc3ccncc3)n(CC(=O)O)c2-c2ccc(OC)cc2)cc1` [Compound T77, 2-[4,5-Bis(4-methoxyphenyl)-2-(4-pyridylmethylsulfanyl)-1H-imidazol-1-yl]-acetic acid], the pIC50 (Table 6, N1-acetic acid derivatives, pig platelets, read-out: MDA IC50) is 6.14. Regarding `COc1ccc(-c2nc(SCCN(C)S(=O)(=O)c3ccc(Cl)cc3)n(C)c2-c2ccc(OC)cc2)cc1` [Compound T19, N^1-{2-[4,5-Bis(4-methoxyphenyl)-1-methyl-1H-imidazol-2-ylsufanyl]-ethyl}-N-1-methyl-4-chlorobenzenesulfonamide], the IC50 (Table 16, dimethyl compounds, pig platelets) was 0.0692 µM. Turning to `COc1ccc(-c2nc(SCCC(=O)c3ccccc3)[nH]c2-c2ccc(OC)cc2)cc1` [Compound T13, 3-[4,5-Bis(4-methoxyphenyl)-1H-imidazol-2-ylsufanyl]-1-phenylpropan-1-one], the IC50 (Table 4, aryl ketones, pig platelets) was 0.0209 µM. `COc1ccc(-c2nc(SCCNC(=O)C(c3ccccc3)c3ccccc3)[nH]c2-c2ccc(OC)cc2)cc1` [Compound T62, N^1-{2-[4,5-Bis(4-methoxyphenyl)-1H-imidazol-2-ylsulfanyl]ethyl}-2,2-diphenylacetamide]: the IC50 (Table 9, alkylamides, pig platelets) is 0.129 µM. Turning to `COc1ccc(-c2nc(SCCNS(=O)(=O)c3ccc(C(C)(C)C)cc3)[nH]c2-c2ccc(OC)cc2)cc1` [Compound T26, N^1-{2-[4,5-Bis(4-methoxyphenyl)-1H-imidazol-2-ylsufanyl]ethyl}-4-(tert-butyl)benzenesulfonamide], the pIC50 under setting [5] is 6.31.

With `COc1ccc(-c2nc(SCCN)[nH]c2-c2ccc(OC)cc2)cc1` [Compound T15, 2-[4,5-Bis(4-methoxyphenyl)-1H-imidazol-2-ylsufanyl]ethanamine], for the setting “Table 3, amines, pig platelets”, the IC50 was 0.776 µM. `COc1ccc(-c2nc(SCc3cccnc3)[nH]c2-c2ccc(OC)cc2)cc1` [Compound T70, 3-[4,5-Bis(4-methoxyphenyl)-1H-imidazol-2-ylsulfanylmethyl]pyridine]: the IC50 under setting [6] was 0.00302 µM. For the same compound, the pIC50 under setting [7] is approximately 9.00. For `COc1ccc(-c2nc(SCCNS(=O)(=O)c3c(C)cc(C)cc3C)[nH]c2-c2ccc(OC)cc2)cc1` [Compound T25, N^1-{2-[4,5-Bis(4-methoxyphenyl)-1H-imidazol-2-ylsufanyl]ethyl}-2,4,6-trimethylbenzenesulfonamide], the IC50 (Table 8, arylsulfonamides, pig platelets) is 0.324 µM. For the compound `COc1ccc(-c2nc(SCc3nc4ccccc4[nH]3)[nH]c2-c2ccc(OC)cc2)cc1` [Compound T73], under setting [6], the IC50 was 0.389 µM.
